Data published in patent US12668649B2, “Monoglycerol acrylate based polymer and uses thereof” (priority 2022, dated 2026).

Experiments:
[1] = Critical micellar concentration by Nile red fluorescence; type: physicochemical
Method: We characterized the critical micellar concentration (CMC) of the polymers to evaluate their ability to self-assemble into polymolecular structures.
Nile red can be used to measure the CMC of surfactants and polymolecular architectures by following the fluorescence of the dye: the critical micelle concentration coincides with a strong increase in the intensity of the fluorescence (λex/em: 549/628 nm). Serial dilutions of polymers were made in the range of 2.5 to 7×10^−4 mg/mL. 200 μL of each sample were used with 10 μL of Nile Red solution in methanol (1×10^−5 M). Fluorescence was read in a 96-well plate (λex/em: 549/628 nm).

[2] = mouse, in vivo, iv
Method: The impact of CTA-PGMA-DODA and PMGA-DODA on the circulation profile of radiolabeled [^14C]-liposomes was studied in healthy Balb/c mice. In this study, the concentrations of radiolabeled liposomes in the blood were monitored for 6 hours after intravenous injection.
Healthy animals were housed in a controlled environment (22° C., 12 hours day/night cycle) with ad libitum access to food and water. A total of 11 healthy male mice were divided in three groups (3-3-5). As a blank, liposomes without polymer on the surface were injected intravenously by the subclavian vein at a concentration of 2 mg/kg of phospholipids. Approximately 30-50 μL of blood was collected at various times (0.25, 0.5, 1, 2, 4, 6 Hours). Six hours post-injection, blood was collected by cardiac puncture for a terminal timepoint. Animals were euthanized by a cardiac perfusion with 3 mL of isotonic phosphate-buffered saline solution pH=7.2 (potassium phosphate 1.1 mmol/L, NaCl 150 mmol/L, disodium phosphate 3 mmol/L) and organs were collected. Biological samples were digested at 58° C. (in Solvable®, Perkin Elmer®), bleached with 30% hydrogen peroxide, and assessed by scintillation counting, using Hionic Fluor® (Perkin Elmer®) as a scintillation cocktail.

CCCCCCCCCCCCOS(=O)(=O)[O-].[Na+] [SDS, sodium dodecyl sulfate]
CMC [1]: 2 mg/mL

DODA-Terminated Poly(Monoglycerol Acrylate) [PMGA-DODA6.5k]
AUC0-6 h of the control liposomes relative to the liposome formulation prepared with the named polymer [2]: 1.2 fold
effect on circulation time of liposomes [2]: do not seem to prolong the circulation time
